Test results published in article PMC6892255, “Identification of a potent small-molecule inhibitor of bacterial DNA repair that potentiates quinolone antibiotic activity in methicillin-resistant Staphylococcus aureus^” (Bioorganic & Medicinal Chemistry, 2019).
“Also recorded” adds a separate entry of the source.

Assays:
[1] = molecular target: T1, E. coli DNA gyrase (Escherichia coli, UniProt P0AES4+P0AES6); assay: DNA gyrase supercoiling assay (pBR322); type: biochemical; conditions: at 12.5 μM (compounds); gel and densitometry
T1 construct: purchased Inspiralis
Experimental: DNA gyrase produces supercoiled DNA from relaxed and open-coiled DNA, which can be separated via agarose gel electrophoresis. […]
(§1) E. coli DNA gyrase supercoiling assay (Inspiralis) was performed according to the manufacturer’s instructions, ensuring a constant concentration of 1% (v/v) DMSO. Samples were separated on a 1% (w/v) agarose gel prepared with Tris/Borate/EDTA (TBE) buffer (1 M Tris-borate, 20 mM EDTA, pH 8.0). Electrophoresis was performed at 100 V until the bromophenol blue dye had run >6 cm to ensure resolution of relaxed and supercoiled DNA.
(§2) The gel was stained with SYBR Safe DNA gel stain (Invitrogen, 1:10,000 dilution in TBE) for 30 min, and visualized on a Syngene Gel Doc system. Band intensity was quantified using ImageJ software and the fraction of supercoiled plasmid was determined as the ratio of the density of the supercoiled band to the total density. Values were background corrected against the no-gyrase control and normalized to DMSO control for dose-response analysis.

[2] = molecular target: T2, E. coli topoisomerase IV (Escherichia coli, UniProt P0AFI2+P20083); assay: Topoisomerase IV supercoiling relaxation assay (pQE80L); type: biochemical; conditions: at 12.5 µM (compounds)
T2 construct: purchased Inspiralis
Experimental: 2.1. Biological and biochemical methods […]
as §1, §2
E. coli topoisomerase IV supercoiling relaxation assay (Inspiralis) was performed according to the manufacturer’s instructions, ensuring a constant concentration of 1% (v/v) DMSO.
Supercoiled pQE80L was prepared via plasmid purification and used as the substrate for the reaction. Reactions were analyzed as described for DNA gyrase assays. […]

[3] = tested on: SOS response in JE2 cells; assay: SOS reporter assay (GFP under control of the recA promoter); type: cell-based, Staphylococcus aureus; conditions: for SOS response (normalized GFP fluorescence/cell): JE2 recA-GFP reporter, SOS activated with CFX (10 µM), titration of compound
Source text: A SOS reporter system was generated by transformation of JE2 cells with a plasmid containing GFP under control of the recA promoter. Activation of the SOS response in these cells results in expression of GFP which can be monitored by fluorescence intensity. […] IMP-1700 (10) was coupled with N-Boc-ethylenediamine to afford amide 19, followed by removal of the Boc group in 4 M HCl/dioxane and purification using strong cation exchange resin. The resulting free amine 20 was coupled to N-hydroxysuccinimide (NHS)-activated Sepharose resin at 4 °C overnight (Figure 2C), and the remaining NHS sites quenched in Tris buffer. SoluBL21 competent E. coli were transformed with pET28b^+ containing StrepII-tagged AddA and hexahistidine-tagged AddB, and expression induced overnight at 16 °C. […] Beads were washed three times with lysis buffer and bound protein eluted with SDS-PAGE sample buffer, followed by PAGE separation. […]
JE2 transformed with SOS-inducible pCN34 PrecA-gfp reporter plasmid expressing GFP under the control of the recA promoter were grown to late stationary phase at 37 °C in MHB containing kanamycin (90 μg/mL). Stationary phase JE2 culture (1 mL) was centrifuged (17,000 × g, 2 min), the supernatant removed and cells resuspended in assay media (12.5 µM […]
concentration was maintained >12.5 µM and DMSO concentration maintained at 1.5% (v/v).
JE2 culture (20 uL) was added to inhibitor solutions (180 µL) to a final cell density of 4 x 10^7 CFU/mL and samples incubated in a M200-PRO microplate reader (Tecan) at 37 °C with 700 rpm agitation for 17 h. GFP fluorescence intensity and OD600 were measured at 15 min intervals. Measurements were background corrected against no-inocula control and normalized to no-test inhibitor control at mid-exponential growth phase (4.5 h) for dose-response analysis. […]

[4] = tested on: methicillin-resistant S. aureus (MRSA, USA300 JE2); assay: Ciprofloxacin (CFX) potentiation in MRSA growth inhibition assay; type: cell-based, Staphylococcus aureus; conditions: compared to IMP-1700 (10)
Experimental: 2.1. Biological and biochemical methods
Bacterial strains and culture conditions
Strains utilized in the present study are detailed in Table S1. All strains used were cultivated on Mueller Hinton Agar (MHA) and grown to stationary-phase in Mueller Hinton Broth (MHB) at 37 °C for 16 h, with shaking at 180 r.p.m.
Minimum inhibitory concentration (MIC) assays
MIC assays were performed in 96 well plates and MICs were determined in accordance with the broth microdilution protocol.4 Strains grown to stationary-phase in MHB were adjusted to 5 x 10^5 colony-forming units (CFU)/mL in fresh MHB (100 µL/well) supplemented with DMSO to ensure a constant concentration of 0.5% (v/v) DMSO across all experiments. Where […]
or H2O2 (200 μM). Test compounds were prepared as two-fold serial dilutions. Cells were […]
as the lowest concentration with no visible bacterial growth, and the optical density at 600 nm (OD600) was recorded. OD600 measurements were background corrected against no-inocula control and normalized to DMSO control for dose-response analysis. The EC50 value mean and SEM were calculated from individual EC50 values from three biological replicates. […]

[5] = tested on: AddAB (StrepII-AddA and His6-AddB); assay: Recombinant AddAB pulldown with compound-functionalized Sepharose; type: binding; conditions: E. coli lysate co-expressing StrepII-AddA and His6-AddB, Western blot
Source text: A SOS reporter system was generated by transformation of JE2 cells with a plasmid containing GFP under control of the recA promoter. Activation of the SOS response in these cells results in expression of GFP which can be monitored by fluorescence intensity. […] This decrease is indicative of inhibition of the SOS response during cell death, and consistent with the proposed inhibition of AddAB-mediated DNA repair pathways. Finally, to provide additional evidence that inhibition of the bacterial DNA repair pathway by IMP-1700 (10) occurred through inhibition of AddAB, a target pulldown was conducted. IMP-1700 (10) was coupled with N-Boc-ethylenediamine to afford amide 19, followed by removal of the Boc group in 4 M HCl/dioxane and purification using strong cation exchange resin. The resulting free amine 20 was coupled to N-hydroxysuccinimide (NHS)-activated Sepharose resin at 4 °C overnight (Figure 2C), and the remaining NHS sites quenched in Tris buffer. SoluBL21 competent E. coli were transformed with pET28b^+ containing StrepII-tagged AddA and hexahistidine-tagged AddB, and expression induced overnight at 16 °C. Cells were lysed via sonication and the total lysate incubated with IMP-1700 (10)-functionalized or control Sepharose beads which had been treated with DMSO then Tris-quenched. Beads were washed three times with lysis buffer and bound protein eluted with SDS-PAGE sample buffer, followed by PAGE separation. […]
agar (LA) supplemented with kanamycin (50 μg/mL). Liquid cultures were grown at 37 °C with shaking at 180 r.p.m until an OD600 of 0.5 was reached, at which point cultures were cooled to 16 °C. Protein expression was induced by addition of isopropyl β-D-thiogalactoside (1 mM), followed by incubation for 20 h at 16 °C with shaking. Cells were collected by centrifugation (4,000 × g, 5 min) and stored at -20 °C.
Cells were re-suspended in lysis buffer (50 mM Tris-HCl, 150 mM NaCl, pH 7.5) and lysed on ice by sonication (2 min, 5 s on-off cycle, 40% amplitude) using a Vibra-cell sonicator (Sonics). […]

T1 sequence (P0AES4 whole entry, one chain of several): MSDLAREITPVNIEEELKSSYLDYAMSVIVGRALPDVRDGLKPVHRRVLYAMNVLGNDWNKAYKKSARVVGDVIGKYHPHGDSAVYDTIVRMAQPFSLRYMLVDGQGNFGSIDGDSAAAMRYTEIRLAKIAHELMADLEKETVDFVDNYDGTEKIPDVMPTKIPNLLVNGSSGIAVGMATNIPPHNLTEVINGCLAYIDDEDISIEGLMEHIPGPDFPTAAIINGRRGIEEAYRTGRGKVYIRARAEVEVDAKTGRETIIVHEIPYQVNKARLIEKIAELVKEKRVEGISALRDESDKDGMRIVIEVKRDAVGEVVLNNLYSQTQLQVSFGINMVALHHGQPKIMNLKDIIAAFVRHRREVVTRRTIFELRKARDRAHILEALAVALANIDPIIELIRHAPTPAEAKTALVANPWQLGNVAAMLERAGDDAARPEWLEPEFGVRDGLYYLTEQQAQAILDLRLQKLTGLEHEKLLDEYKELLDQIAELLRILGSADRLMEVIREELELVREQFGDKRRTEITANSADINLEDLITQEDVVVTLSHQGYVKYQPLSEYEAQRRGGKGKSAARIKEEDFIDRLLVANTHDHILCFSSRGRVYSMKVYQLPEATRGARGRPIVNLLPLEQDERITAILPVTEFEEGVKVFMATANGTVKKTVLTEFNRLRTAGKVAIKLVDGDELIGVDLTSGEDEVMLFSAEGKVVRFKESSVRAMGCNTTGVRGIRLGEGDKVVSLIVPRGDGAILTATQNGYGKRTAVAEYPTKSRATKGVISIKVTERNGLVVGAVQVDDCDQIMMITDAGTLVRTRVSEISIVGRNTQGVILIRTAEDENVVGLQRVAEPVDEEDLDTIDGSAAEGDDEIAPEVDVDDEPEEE
T2 sequence (P0AFI2 whole entry): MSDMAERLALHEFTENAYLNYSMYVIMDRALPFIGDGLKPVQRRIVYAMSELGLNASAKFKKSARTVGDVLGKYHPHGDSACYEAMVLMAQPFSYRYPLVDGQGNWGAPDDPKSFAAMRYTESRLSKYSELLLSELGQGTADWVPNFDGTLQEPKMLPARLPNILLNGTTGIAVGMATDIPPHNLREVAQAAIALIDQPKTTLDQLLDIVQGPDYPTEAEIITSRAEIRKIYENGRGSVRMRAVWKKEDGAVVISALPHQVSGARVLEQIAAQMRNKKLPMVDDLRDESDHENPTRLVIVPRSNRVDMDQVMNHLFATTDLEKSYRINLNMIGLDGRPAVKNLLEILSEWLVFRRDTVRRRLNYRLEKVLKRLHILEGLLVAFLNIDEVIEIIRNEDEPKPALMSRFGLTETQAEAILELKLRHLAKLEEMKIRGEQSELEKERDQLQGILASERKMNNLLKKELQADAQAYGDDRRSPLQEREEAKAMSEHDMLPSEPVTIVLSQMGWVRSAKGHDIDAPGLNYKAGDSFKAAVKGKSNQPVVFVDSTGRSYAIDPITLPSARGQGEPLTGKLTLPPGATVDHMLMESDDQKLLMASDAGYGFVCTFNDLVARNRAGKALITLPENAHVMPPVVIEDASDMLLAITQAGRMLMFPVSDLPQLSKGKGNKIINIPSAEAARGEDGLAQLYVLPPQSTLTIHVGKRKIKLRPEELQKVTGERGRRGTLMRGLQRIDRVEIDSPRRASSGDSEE
T2 sequence (P20083 whole entry): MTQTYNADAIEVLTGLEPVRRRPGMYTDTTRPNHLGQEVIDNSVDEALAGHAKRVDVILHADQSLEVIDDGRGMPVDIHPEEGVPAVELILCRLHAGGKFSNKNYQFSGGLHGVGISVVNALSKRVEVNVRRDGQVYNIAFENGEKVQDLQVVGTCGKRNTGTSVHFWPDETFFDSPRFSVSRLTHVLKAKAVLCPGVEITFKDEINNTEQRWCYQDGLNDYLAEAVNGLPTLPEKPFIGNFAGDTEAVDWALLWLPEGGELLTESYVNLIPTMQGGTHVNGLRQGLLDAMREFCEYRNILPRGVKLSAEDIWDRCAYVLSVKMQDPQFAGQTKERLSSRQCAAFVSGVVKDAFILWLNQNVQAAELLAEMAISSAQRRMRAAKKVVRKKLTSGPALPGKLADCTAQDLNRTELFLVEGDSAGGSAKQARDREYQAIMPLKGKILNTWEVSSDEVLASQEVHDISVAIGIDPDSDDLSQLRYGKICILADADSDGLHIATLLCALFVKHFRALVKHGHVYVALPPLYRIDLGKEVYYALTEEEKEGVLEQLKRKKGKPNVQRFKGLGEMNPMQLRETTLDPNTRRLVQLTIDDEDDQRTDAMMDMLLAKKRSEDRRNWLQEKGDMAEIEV

SMILES: O=C(O)c1cn(C2CC2)c2cc(N3CCNCC3)c(F)cc2c1=O [CFX, ciprofloxacin, reference compound]
- Activity against DNA gyrase [1]: inhibited
- Inhibition of topoisomerase IV [2]: inhibited
- Effect on cell number (OD600) in SOS reporter assay ([3]; JE2 recA-GFP reporter with CFX (10 µM)): decrease in cell number at low micromolar concentrations
- SOS response (normalized GFP fluorescence/cell) [3]: increase in normalized GFP fluorescence/cell; also recorded: SOS activation increased

SMILES: O=C(O)c1cn(C2CC2)c2cc(N3CCN(C(=O)Nc4ccccc4)CC3)c(F)cc2c1=O [Compound 21]
- fold weaker potentiation of CFX in MRSA growth assays [4]: ~100 fold
- SOS response (normalized GFP fluorescence/cell) [3]: did not inhibit the SOS response; also recorded: SOS activation increased
- Pulldown of AddA and AddB by compound-functionalized Sepharose [5]: no interaction; also recorded: did not; also recorded: does not pulldown
